Reference: US7772246B2 (Pfizer Inc., priority 2007, dated 2010)

Columns and labels:
b-Raf [1] = target: T1, b-Raf (Homo sapiens, UniProt P15056); experiment: Raf biochemical assay (in vitro kinase assay, 32-P transfer from ATP to Mek1); details: full-length wild type b-Raf, Mek1 substrate; for Ki: 25 μM ATP; for inhibition at 1 µM: @ 1 μM compound, read-out: b-Raf % inhib @ 1 μM
T1 construct: Full-length wild type b-Raf is expressed in recombinant form and purified from bacterial or insect cells; made in house; host or cells: bacterial or insect cells
Procedure: Compounds of the present invention were evaluated for potency against b-Raf using an in vitro kinase assay. Raf kinase activity is measured in vitro by determining transfer of radiolabeled 32-P phosphate from ATP to the specific Raf substrate Mek1. Full-length wild type b-Raf is expressed in recombinant form and purified from bacterial or insect cells. Recombinant Mek1 is purified from E. coli bacterial cells. In one assay format (designated G1), the full-length wild type Mek1 is used as the b-Raf substrate. In a second assay format (designated G2), the full-length K97R Mek1 mutant is used as the b-Raf substrate.
In vitro kinase assays are performed in solution containing the following; 50 mM Hepes (pH 7.4), 5 nM b-Raf, 0.8 μM Mek1, 10 mM MgCl2, 25 μM ATP, 0.002% (v/v) Tween-20, 5 μg/mL leupeptin, 1.2 mM DTT, 2% (v/v) DMSO, 0.2-1.0 μCi [γ-^32P]ATP per well.
The assays are performed in wells of a 96 well polypropylene round bottom plate, each well containing 43.5 μL assay mix and 1.5 μL inhibitor compound or DMSO vehicle. 15 μL of b-Raf mix is added and the plate is shaken on a plate shaker and preincubated for 10 minutes at ambient temperature. The reaction is started by addition of 15 μL ATP mix and shaking. The reaction is terminated after 40 minutes by addition of 25 μL 0.5 M EDTA (pH 7.4).
60 μL of the stopped reaction is transferred to a well of a 96-well nylon 66 Biodyne A membrane Silent Screen filter plate (Nalge/Nunc: 256081). The wells are filtered and washed five times with 0.85% phosphoric acid. The filter is placed in a tray with about 50 mL 0.85% phosphoric acid and gently rotated for 10 minutes on an orbital shaker. The procedure is repeated once with fresh 0.85% phosphoric acid. Five samples of 0.5 μL of ATP mix are also spotted onto filter paper for calculation of specific activity. The filters are air dried for one hour and sandwiched between cellophane wrap on an Amersham Biosciences Storage Phosphor Screen and developed at least over night. The image is read using a Molecular Dynamics Storm 840 phosphoimager. Volumes of spots are calculated using ImageQuant5.1.
Raf kinase activity is calculated from the specific activity of [32-P] ATP, 32-P incorporation into Mek1, and the concentration of b-Raf.

b-Raf [2] = target: T2, b-Raf (Homo sapiens, UniProt P15056, V600E); experiment: Raf cellular assay (phospho-Mek1/2 ELISA in A2058 cells); type: cell-based; details: Table 2; human melanoma A2058 cells (b-Raf mutation), Mek1/2 Ser217/221 phosphorylation, 1 hour incubation; read-out: pMEK IC50
T2 construct: endogenous in cells; host or cells: A2058 human melanoma cells
How it was run: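 A2058 melanoma cells (B-Raf mutant), seeded overnight in 10% FBS DMEM, were exposed to compounds (11-point 1:3 series, duplicate) for 1 h at 37 °C. Lysates were captured on anti-Mek1-coated plates and Mek1/2 Ser217/221 phosphorylation was read by anti-phospho-Mek1/2 ELISA, HRP/TMB, 450 nm.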

T1 sequence (P15056 whole entry): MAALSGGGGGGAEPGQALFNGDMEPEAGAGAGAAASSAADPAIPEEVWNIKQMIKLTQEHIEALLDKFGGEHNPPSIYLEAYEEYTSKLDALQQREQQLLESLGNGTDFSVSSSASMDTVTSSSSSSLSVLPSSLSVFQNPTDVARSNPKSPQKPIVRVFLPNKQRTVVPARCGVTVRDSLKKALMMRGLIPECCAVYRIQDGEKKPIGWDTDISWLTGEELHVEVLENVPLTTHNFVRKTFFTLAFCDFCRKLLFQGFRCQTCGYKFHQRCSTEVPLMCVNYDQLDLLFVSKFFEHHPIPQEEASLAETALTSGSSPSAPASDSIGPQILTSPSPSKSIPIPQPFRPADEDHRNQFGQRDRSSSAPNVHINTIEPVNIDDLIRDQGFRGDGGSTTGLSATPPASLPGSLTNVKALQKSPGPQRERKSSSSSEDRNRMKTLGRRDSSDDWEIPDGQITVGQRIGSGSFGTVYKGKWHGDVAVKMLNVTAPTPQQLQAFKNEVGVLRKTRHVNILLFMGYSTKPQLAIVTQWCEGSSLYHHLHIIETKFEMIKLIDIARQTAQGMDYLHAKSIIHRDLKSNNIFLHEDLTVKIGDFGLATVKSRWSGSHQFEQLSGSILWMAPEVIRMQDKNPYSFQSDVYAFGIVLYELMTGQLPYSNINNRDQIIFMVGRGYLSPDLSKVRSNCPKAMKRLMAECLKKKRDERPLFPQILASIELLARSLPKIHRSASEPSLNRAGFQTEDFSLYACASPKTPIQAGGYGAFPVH
T2 sequence (P15056 whole entry V600E): as the sequence (P15056 whole entry) above, with V600E counted along it

Row | Ki (b-Raf [1]) [nM] | IC50 (b-Raf [2]) [nM] | inhibition at 1 µM (b-Raf [1]) [%] | SMILES
1 | 2 | 9260 | – | Cc1nc2ncc(-c3nn(C(C)C)cc3-c3ccnc(NC[C@H](C)O)n3)cn2c1C [Example B-9, (2S)-1-(4-(3-(2,3-dimethylimidazo[1,2-a]pyrimidin-6-yl)-1-isopropyl-1H-pyrazol-4-yl)pyrimidin-2-ylamino)propan-2-ol]
2 | 5 | 5960 | – | CC(C)n1cc(-c2ccnc(NC[C@H](C)O)n2)c(-c2cnc3ccn(C)c3n2)n1 [Example B-10]
3 | < 0.1 | 7 | – | CC(C)n1cc(-c2ccnc(NC[C@H](C)O)n2)c(-c2cnc3[nH]cc(Cl)c3c2)n1 [Example B-11, (2S)-1-(4-(3-(3-chloro-1H-pyrrolo[2,3-b]pyridin-5-yl)-1-isopropyl-1H-pyrazol-4-yl)pyrimidin-2-ylamino)propan-2-ol]
4 | 1.6 | 450 | – | CC(C)n1cc(-c2ccnc(NC[C@H](C)O)n2)c(-c2cnc3c(c2)CCN3)n1 [Example B-12, (2S)-1-(4-(3-(2,3-dihydro-1H-pyrrolo[2,3-b]pyridin-5-yl)-1-isopropyl-1H-pyrazol-4-yl)pyrimidin-2-ylamino)propan-2-ol]
5 | 22.7 | 6270 | – | C[C@H](O)CNc1nccc(-c2cn(C)nc2-c2cnc3[nH]ccc3c2)n1 [Example B-13, (2S)-1-(4-(1-methyl-3-(1H-pyrrolo[2,3-b]pyridin-5-yl)-1H-pyrazol-4-yl)pyrimidin-2-ylamino)propan-2-ol]
6 | 0.7 | 510 | 100 | C[C@H](O)CNc1nccc(-c2cn(CC(F)F)nc2-c2cnc3[nH]ccc3c2)n1 [Example B-14, (2S)-1-(4-(1-(2,2-difluoroethyl)-3-(1H-pyrrolo[2,3-b]pyridin-5-yl)-1H-pyrazol-4-yl)pyrimidin-2-ylamino)propan-2-ol]
7 | 6.2 | 3250 | – | C[C@H](O)CNc1nccc(-c2cn(CC3(C)COC3)nc2-c2cnc3[nH]ccc3c2)n1 [Example B-15, (2S)-1-(4-(1-((3-methyloxetan-3-yl)methyl)-3-(1H-pyrrolo[2,3-b]pyridin-5-yl)-1H-pyrazol-4-yl)pyrimidin-2-ylamino)propan-2-ol]
8 | 3.9 | 483 | – | C[C@H](O)CNc1nccc(-c2cn(CC#N)nc2-c2cnc3[nH]ccc3c2)n1 [Example C-1, [4-[2-((S)-2-Hydroxy-propylamino)-pyrimidin-4-yl]-3-(1H-pyrrolo[2,3-b]pyridin-5-yl)-pyrazol-1-yl]-acetonitrile]
9 | 3.3 | 1980 | – | CC(C)n1cc(-c2ccnc(NC[C@H](C)O)n2)c(-c2cnc3[nH]ncc3c2)n1 [Example D-1, (2S)-1-(4-(1-isopropyl-3-(1H-pyrazolo[3,4-b]pyridin-5-yl)-1H-pyrazol-4-yl)pyrimidin-2-ylamino)propan-2-ol]
10 | 0.3 | 109 | – | Cc1n[nH]c2ncc(-c3nn(C(C)C)cc3-c3ccnc(NC[C@H](C)O)n3)cc12 [Example D-2, (2S)-1-(4-(1-isopropyl-3-(3-methyl-1H-pyrazolo[3,4-b]pyridin-5-yl)-1H-pyrazol-4-yl)pyrimidin-2-ylamino)propan-2-ol]
11 | 8.3 | 1810 | 93 | CC(C)n1cc(-c2ccnc(NCc3ccccn3)n2)c(-c2cnc3[nH]ccc3c2)n1 [Example D-3, 4-(1-isopropyl-3-(1H-pyrrolo[2,3-b]pyridin-5-yl)-1H-pyrazol-4-yl)-N-(pyridin-2-ylmethyl)pyrimidin-2-amine]
12 | < 0.1 | 149 | 100 | CC(C)n1cc(-c2ccnc(NCCn3cccn3)n2)c(-c2cnc3[nH]ccc3c2)n1 [Example D-4, 4-[1-isopropyl-3-(1H-pyrrolo[2,3-b]pyridin-5-yl)-1H-pyrazol-4-yl]-N-[2-(1H-pyrazol-1-yl)ethyl]pyrimidin-2-amine]
13 | 0.5 | 182 | 100 | CC(C)n1cc(-c2ccnc(NCCF)n2)c(-c2cnc3[nH]ccc3c2)n1 [Example D-5, N-(2-fluoroethyl)-4-[1-isopropyl-3-(1H-pyrrolo[2,3-b]pyridin-5-yl)-1H-pyrazol-4-yl]pyrimidin-2-amine]
14 | 1.36 | 369 | 101 | CC(C)n1cc(-c2ccnc(NCCO)n2)c(-c2cnc3[nH]ccc3c2)n1 [Example D-6, 2-({4-[1-isopropyl-3-(1H-pyrrolo[2,3-b]pyridin-5-yl)-1H-pyrazol-4-yl]pyrimidin-2-yl}amino)ethanol]
15 | 0.5 | 386 | 99 | CC(C)n1cc(-c2ccnc(NCCc3cn[nH]c3)n2)c(-c2cnc3[nH]ccc3c2)n1 [Example D-7, 4-[1-isopropyl-3-(1H-pyrrolo[2,3-b]pyridin-5-yl)-1H-pyrazol-4-yl]-N-[2-(1H-pyrazol-4-yl)ethyl]pyrimidin-2-amine]
16 | 0.7 | 542 | 100 | CC(C)n1cc(-c2ccnc(NCCn3ccccc3=O)n2)c(-c2cnc3[nH]ccc3c2)n1 [Example D-8, 1-[2-({4-[1-isopropyl-3-(1H-pyrrolo[2,3-b]pyridin-5-yl)-1H-pyrazol-4-yl]pyrimidin-2-yl}amino)ethyl]pyridin-2(1H)-one]
17 | 2 | 923 | 100 | CCn1cc(CNc2nccc(-c3cn(C(C)C)nc3-c3cnc4[nH]ccc4c3)n2)cn1 [Example D-10, N-[(1-ethyl-1H-pyrazol-4-yl)methyl]-4-[1-isopropyl-3-(1H-pyrrolo[2,3-b]pyridin-5-yl)-1H-pyrazol-4-yl]pyrimidin-2-amine]
18 | 0.8 | 1320 | 100 | Cc1nc(CNc2nccc(-c3cn(C(C)C)nc3-c3cnc4[nH]ccc4c3)n2)c(C)o1 [Example D-11, N-[(2,5-dimethyl-1,3-oxazol-4-yl)methyl]-4-[1-isopropyl-3-(1H-pyrrolo[2,3-b]pyridin-5-yl)-1H-pyrazol-4-yl]pyrimidin-2-amine]
19 | 1.4 | 1520 | 99 | CC(C)n1cc(-c2ccnc(NCC3CCOC3)n2)c(-c2cnc3[nH]ccc3c2)n1 [Example D-12, 4-[1-isopropyl-3-(1H-pyrrolo[2,3-b]pyridin-5-yl)-1H-pyrazol-4-yl]-N-(tetrahydrofuran-3-ylmethyl)pyrimidin-2-amine]
20 | 0.7 | 2990 | 100 | COCCNc1nccc(-c2cn(C(C)C)nc2-c2cnc3[nH]ccc3c2)n1 [Example D-13, 4-[1-isopropyl-3-(1H-pyrrolo[2,3-b]pyridin-5-yl)-1H-pyrazol-4-yl]-N-(2-methoxyethyl)-pyrimidin-2-amine]
21 | 4.8 | 3140 | 99 | CCN1CC(CNc2nccc(-c3cn(C(C)C)nc3-c3cnc4[nH]ccc4c3)n2)CC1=O [Example D-14, 1-ethyl-4-[({4-[1-isopropyl-3-(1H-pyrrolo[2,3-b]pyridin-5-yl)-1H-pyrazol-4-yl]pyrimidin-2-yl}amino)methyl]-pyrrolidin-2-one]
22 | 1.5 | 223 | – | C[C@H](O)CNc1nccc(-c2cn(C)nc2-c2cnc3[nH]cc(Cl)c3c2)n1 [Example E-1, (2S)-1-(4-(3-(3-chloro-1H-pyrrolo[2,3-b]pyridin-5-yl)-1-methyl-1H-pyrazol-4-yl)pyrimidin-2-ylamino)propan-2-ol]
